In US10798942B2, “Abiotic stress tolerance” (SYNGENTA PARTICIPATIONS AG, priority 2016, dated 2020):

Columns and labels:
[1] = system: rice plants; assay: Field trials 2012-2015: tolerance of rice plants to heat stress (eleven trials); type: in vivo, Oryza sativa L.
Procedure: Field trials were setup during the hot season in India to test the effect of treatment with the compound of formula (Ia) on tolerance of rice plants to heat stress.
Trials were conducted in 2012, 2013, 2014, and 2015 in the Tamil Nadu rice production area (India) at the following sites: Kelamoor (lat. 12.42, long. 79.81), Kokkur (lat. 11.02, long. 79.32), Nachinargudi (lat. 11.01, long. 79.3), Velamoor (lat. 12.41, long. 79.8), Kumbakonam (lat. 10.97, long. 79.42) and Ramapuram (lat. 12.43, long. 79.83). The test sites had similar soil chemical properties, with an average soil pH of 6.6.
Rice (Oryza sativa L.) of the local varieties ADT43, ADT45 and NK5251 were mechanically transplanted at four plants per hill with a plant spacing of 16 cm and a row spacing of 30 cm. All trials were performed in good level of water management. Fertilizer was applied in accordance with the best local practice across the trial area.
Commercial treated seeds (no neonicotinoids as seed treatments) were used. Weed control was according to the best local practice in order to provide excellent weed control. Foliar fungicides and insecticides were applied according to common practice (no products that contain neonicotinoids or strobilurins).
The trial design was a randomized bloc design. Plot size was 40 m^2 (4 m width [12 rows] by 10 m row length). Each trial had four replicates. In total, eleven trials were conducted.
The compound of formula (Ia) was applied at a rate of 10 g ai/ha with small-plot hand-held boom sprayer. Application of the compound was as broadcast foliar spray in close proximity to leaf/canopy surface (25-40 cm distance from the crop). The used spray volumes were between 250 L/ha and 500 L/ha. Application was done either at panicle initiation (BBCH 30), at panicle formation (BBCH 32), at spikelet differentiation (BBCH 35), at meiosis (BBCH 39) or at heading (BBCH 51). In some experiments, the compound was applied twice (2×10 g ai/ha) at consecutive growth stages (i.e., BBCH 30+32, BBCH 32+35, BBCH 35+39, and BBCH 39+51).
Temperature was recorded nearby the trial sites. During and up to 14 days after the critical growth stages (i.e. from panicle initiation until heading) the mean daily minimum temperature was 25.1° C. (in the range of 22.6° C. to 27.1° C.) and the mean daily maximum temperature was 35.5° C. (in the range of 29.0 to 38.9° C.).
Tolerance to heat stress was assessed by measuring the following yield components: number of panicles per area, number of grains per panicle, percentage of ripened (filled) grains, number of tillers per area, percentage of productive tillers, grain yield per area at 14% moisture and thousand grain weight (TGVV).
The data in Tables 1 to 3 represent averages of the results from all eleven independent field trials, expressed as a percentage compared to the untreated control. The percentage increase or decrease was calculated for each trial relative to the untreated control for that trial, prior to calculating the mean percentage change across all 11 trials.

[2] = system: rice plants; assay: Further field trials 2016, rice variety ADT45 (7 trials); type: in vivo, Oryza sativa L.; conditions: 10 g AI/ha; for Average yield increase compared to UTC (%): 7 trials 2016; for Yield at 14% MC (kg/ha): 7 trials 2016, mean daily min 25.13° C., max 34.13° C., UTC 6512
Procedure: Rice (Oryza sativa L.) of the local varieties ADT43, ADT45 and NK5251 were mechanically transplanted at four plants per hill with a plant spacing of 16 cm and a row spacing of 30 cm. All trials were performed in good level of water management. Fertilizer was applied in accordance with the best local practice across the trial area. Commercial treated seeds (no neonicotinoids as seed treatments) were used. Weed control was according to the best local practice in order to provide excellent weed control. Foliar fungicides and insecticides were applied according to common practice (no products that contain neonicotinoids or strobilurins). The trial design was a randomized bloc design. Plot size was 40 m^2 (4 m width [12 rows] by 10 m row length). Each trial had four replicates. In total, eleven trials were conducted. The compound of formula (Ia) was applied at a rate of 10 g ai/ha with small-plot hand-held boom sprayer. Application of the compound was as broadcast foliar spray in close proximity to leaf/canopy surface (25-40 cm distance from the crop). The used spray volumes were between 250 L/ha and 500 L/ha. Application was done either at panicle initiation (BBCH 30), at panicle formation (BBCH 32), at spikelet differentiation (BBCH 35), at meiosis (BBCH 39) or at heading (BBCH 51). In some experiments, the compound was applied twice (2×10 g ai/ha) at consecutive growth stages (i.e., BBCH 30+32, BBCH 32+35, BBCH 35+39, and BBCH 39+51). Tolerance to heat stress was assessed by measuring the following yield components: number of panicles per area, number of grains per panicle, percentage of ripened (filled) grains, number of tillers per area, percentage of productive tillers, grain yield per area at 14% moisture and thousand grain weight (TGVV). Further trials were conducted in the Tamil Nadu rice production area (India) in 2016 using the protocol as described above using rice variety ADT45, with treatment timings of panicle initiation (BBCH 30), panicle formation (BBCH 32), spikelet differentiation (BBCH 35) and meiosis (BBCH 39) only. The compound of formula (Ia) was applied at a rate of 10 g Al/ha. Grain yield was measured at 14% moisture content (MC).

[3] = BBCH 30 at application, 10 g ai/ha foliar spray, mean of 11 trials, mean daily min 25.1° C., max 35.5° C.
[4] = BBCH 32 at application, 10 g ai/ha foliar spray, mean of 11 trials, mean daily min 25.1° C., max 35.5° C.
[5] = BBCH 35 at application, 10 g ai/ha foliar spray, mean of 11 trials, mean daily min 25.1° C., max 35.5° C.
[6] = BBCH 39 at application, 10 g ai/ha foliar spray, mean of 11 trials, mean daily min 25.1° C., max 35.5° C.
[7] = BBCH 51 at application, 10 g ai/ha foliar spray, mean of 11 trials, mean daily min 25.1° C., max 35.5° C.
[8] = maximum air temperature 35.1-36 ° C. during five days after application, applied between BBCH 30 and BBCH 51, 10 g ai/ha
[9] = maximum air temperature 36.1-37 ° C. during five days after application, applied between BBCH 30 and BBCH 51, 10 g ai/ha
[10] = maximum air temperature >37 ° C. during five days after application, applied between BBCH 30 and BBCH 51, 10 g ai/ha
[11] = maximum air temperature ≤35 ° C. during five days after application, applied between BBCH 30 and BBCH 51, 10 g ai/ha

COc1cccc(Nc2nc(F)nc3[nH]cnc23)c1 [formula (Ia)]
Empty spikelets (% of UTC) [1, 3]: −7.5 % of UTC | TGW (% of UTC), thousand grain weight [1, 3]: +2.5 % of UTC | Grain yield (% of UTC) ([1]; BBCH 30 at application, 10 g ai/ha foliar spray, mean of 11 trials, mean daily min 25.1° C., max 35.5° C. during 14 days after application): +6.0 % of UTC | grain yield (as percent change compared to untreated controls) ([1]; BBCH 30 at application, maximum air temperature >36° C. during five days after application, 10 g ai/ha): +7.5% | grain yield (as percent change compared to untreated controls) ([1]; BBCH 30 at application, maximum air temperature ≤36° C. during five days after application, 10 g ai/ha): +1.6% | Empty spikelets (% of UTC) [1, 4]: −9.3 % of UTC | Grain yield (% of UTC) [1, 4]: +7.4 % of UTC | TGW (% of UTC), thousand grain weight [1, 4]: +2.2 % of UTC | grain yield (as percent change compared to untreated controls) ([1]; BBCH 32 at application, maximum air temperature >36° C. during five days after application, 10 g ai/ha): +9.0% | grain yield (as percent change compared to untreated controls) ([1]; BBCH 32 at application, maximum air temperature ≤36° C. during five days after application, 10 g ai/ha): +0.7% | Empty spikelets (% of UTC) [1, 5]: −3.8 % of UTC | Grain yield (% of UTC) [1, 5]: +4.7 % of UTC | TGW (% of UTC), thousand grain weight [1, 5]: +1.8 % of UTC | grain yield (as percent change compared to untreated controls) ([1]; BBCH 35 at application, maximum air temperature >36° C. during five days after application, 10 g ai/ha): +5.4% | grain yield (as percent change compared to untreated controls) ([1]; BBCH 35 at application, maximum air temperature ≤36° C. during five days after application, 10 g ai/ha): +1.8% | Empty spikelets (% of UTC) [1, 6]: −6.6 % of UTC | Grain yield (% of UTC) [1, 6]: +4.9 % of UTC | TGW (% of UTC), thousand grain weight [1, 6]: +1.6 % of UTC | grain yield (as percent change compared to untreated controls) ([1]; BBCH 39 at application, maximum air temperature >36° C. during five days after application, 10 g ai/ha): +5.1% | grain yield (as percent change compared to untreated controls) ([1]; BBCH 39 at application, maximum air temperature ≤36° C. during five days after application, 10 g ai/ha): +2.6% | Empty spikelets (% of UTC) [1, 7]: −3.5 % of UTC | Grain yield (% of UTC) [1, 7]: +2.8 % of UTC | TGW (% of UTC), thousand grain weight [1, 7]: +2.0 % of UTC | grain yield (as percent change compared to untreated controls) ([1]; BBCH 51 at application, maximum air temperature >36° C. during five days after application, 10 g ai/ha): +3.6% | grain yield (as percent change compared to untreated controls) ([1]; BBCH 51 at application, maximum air temperature ≤36° C. during five days after application, 10 g ai/ha): −0.7% | grain yield, effect in words ([1]; applied between BBCH 30 (panicle initiation) and BBCH 51 (heading)): an increase of grain yield was achieved | effect of treatment on rice grain yield, in words ([1]; daily maximum temperature above 36° C. at least one day after application but within 5 days after application): clear beneficial effect | Grain yield (% of UTC) [1, 8]: +1.1 % of UTC | TGW (% of UTC) [1, 8]: +2.3 % of UTC | Grain yield (% of UTC) [1, 9]: +5.5 % of UTC | TGW (% of UTC) [1, 9]: +2.2 % of UTC | Grain yield (% of UTC) [1, 10]: +6.6 % of UTC | TGW (% of UTC) [1, 10]: +1.8 % of UTC | Grain yield (% of UTC) [1, 11]: +0.9 % of UTC | TGW (% of UTC) [1, 11]: +1.4 % of UTC | heat stress protection, in words ([1]; plants at growth stages from panicle initiation (BBCH 30) to heading (BBCH 51) at the time of treatment): heat stress protection was achieved | Average yield increase compared to UTC (%) ([2]; BBCH 30 at application): +3.5% | Yield at 14% MC (kg/ha) ([2]; BBCH 30 at application): 6741 kg/ha | Average yield increase compared to UTC (%) ([2]; BBCH 32 at application): +4.7% | Yield at 14% MC (kg/ha) ([2]; BBCH 32 at application): 6820 kg/ha | Average yield increase compared to UTC (%) ([2]; BBCH 35 at application): +6.4% | Yield at 14% MC (kg/ha) ([2]; BBCH 35 at application): 6931 kg/ha | Average yield increase compared to UTC (%) ([2]; BBCH 39 at application): +3.6% | Yield at 14% MC (kg/ha) ([2]; BBCH 39 at application): 6757 kg/ha
